The assay concerns the target human orexin type 2 receptor (hOX2R) (Homo sapiens (Human), UniProt O43614). The experiment in a line: Measurement of orexin type 2 receptor agonist activity (Experimental Example 2-1, FLIPR intracellular Ca2+). The class given is cell-based. The source says: To obtain a cell clone stably expressing human orexin type 2 receptor, human orexin type 2 receptor cDNA was inserted into pcDNA3.1(+) plasmid vector (Invitrogen), and a plasmid DNA for expression of human orexin type 2 receptor (pcDNA3.1(+)/hOX2R) was cloned. The plasmid DNA was introduced into CHO-dhfr cell by an electroporation method, and human orexin type 2 receptor expressing clone cells were obtained by limiting dilution method by using G418 drug resistance as a selection marker.
Chinese hamster ovary (CHO) dhfr-cells forcibly expressing human orexin type 2 receptor (hOX2R) were seeded in each well of Black clear bottom plate (384 wells) (Becton, Dickinson and Company) by 10,000 cells, and cultured for 16 hr in an MEM-alpha (Nikken-Bio Co., Ltd.) medium containing 100 U/ml penicillin, 100 μg/ml streptomycin, […] G418 (all above Invitrogen), and 10% fetal calf serum (Thermo), under the conditions of 37° C., 5% CO2. […] A test compound was dissolved in dimethyl sulfoxide to 10 mM, and then diluted with assay buffer 2 (20 mM HEPES, Hanks' balanced salt solution (Invitrogen), 0.1% bovine serum albumin). For the reaction, a test compound solution (10 μL) was added using Fluorescent Imaging Plate Reader TETRA (FLIPR TETRA; manufactured by Molecular Devices), a fluorescence value (excitation wavelength 488 nm, measurement wavelength 570 nm) of each well was measured every one second for 1 min, and the agonist activity was determined using the area of the fluorescence value as an indicator of intracellular Ca^2+ concentration.

The mark [1] stands for this setting: CHO dhfr- cells expressing hOX2R, FLIPR TETRA Ca2+ fluorescence (Exp. Ex. 2-1).

human orexin type 2 receptor (hOX2R), sequence (O43614 whole entry): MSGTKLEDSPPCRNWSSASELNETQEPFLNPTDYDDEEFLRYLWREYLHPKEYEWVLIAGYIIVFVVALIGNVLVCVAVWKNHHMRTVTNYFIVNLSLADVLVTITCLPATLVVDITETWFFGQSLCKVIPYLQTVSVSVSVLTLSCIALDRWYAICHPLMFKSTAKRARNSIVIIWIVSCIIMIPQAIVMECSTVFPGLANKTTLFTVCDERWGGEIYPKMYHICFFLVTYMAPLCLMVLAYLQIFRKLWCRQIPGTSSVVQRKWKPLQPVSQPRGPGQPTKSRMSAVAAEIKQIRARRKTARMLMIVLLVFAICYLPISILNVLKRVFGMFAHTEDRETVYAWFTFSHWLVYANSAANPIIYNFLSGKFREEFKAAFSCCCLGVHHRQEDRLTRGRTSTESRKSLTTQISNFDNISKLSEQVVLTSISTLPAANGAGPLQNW

Take “cis-N-ethyl-3- ((methylsulfonyl)amino)-2- (((cis-2-phenyl-1,3-dioxan- 5-yl)oxy)methyl) piperidine-1-carboxamide [Example 140]”: under setting [1], the response was half-maximal at 390 nM (EC50) and the “Emax (%)” value turned out to be 92%.
For `CCOC(=O)N1CCC[C@H](NS(C)(=O)=O)[C@@H]1CO[C@H]1CC[C@@H](c2ccccc2)CC1` [Example 303, ethyl (2R,3S)-3-((methylsulfonyl)amino)-2-(((cis-4-phenylcyclohexyl)oxy)methyl)-piperidine-1-carboxylate], the EC50 under setting [1] was 15 nM.
On to `COc1ccccc1[C@H]1CC[C@@H](OC[C@H]2[C@@H](NS(C)(=O)=O)CCCN2C(=O)C2CC2)CC1` [Example 28, N-((2R,3S)-1-(cyclopropylcarbonyl)-2-(((cis-4-(2-methoxyphenyl)cyclohexyl)oxy)methyl)piperidin-3-yl)methanesulfonamide], for which the Emax at 30 µM (value at 30 uM concentration, orexin B as full agonist = 100%) came out at 98%.
On to `COc1cccc([C@H]2CC[C@@H](OC[C@H]3[C@@H](NS(C)(=O)=O)CCCN3C(=O)C3CC3)CC2)c1` [Example 304, N-((2R,3S)-1-(cyclopropylcarbonyl)-2-(((cis-4-(3-methoxyphenyl)cyclohexyl)oxy)-methyl)piperidin-3-yl) methanesulfonamide], for which, under setting [1], the EC50 was 23 nM. This counts as double-digit nanomolar.

In general, EC50 refers to the concentration that produces a half-maximal response. A low value points to a more potent agent. What is called Emax is the greatest response seen or fitted, relative to the assay's reference.

Source of the values: patent US11292766B2, “Substituted piperidine compound and use thereof” (Takeda Pharmaceutical Company Limited, priority 2016, dated 2022).
